Assay results from patent publication US9443060B2, “Method and system to provide personalized pharmaceutical compositions and dosages” (Volant Holdings GMBH, priority 2009, dated 2016).
Read-outs that look alike come from different tables or passages of the source.

Legend:
insulin resistance (IR) [1] = assay: Glucose supply and insulin demand model: effect on insulin resistance; format: in vivo, human
Procedure: (§1) Therapeutic targets of the glucose supply (CE, 1+2; HGU, 3; GNG, 4; IR, 5) and insulin demand (PGU, 6; PIE, 7) model are presented in FIG. 1. To identify quantitative differences between antidiabetic agents on CE, HGU, GNG, IR, PGU, and PIE, multidatabase searches (Cochrane Central Register of Controlled Trials and Cochrane Register of Systematic Reviews, Embase, OVID Healthstar, OVID Journals, and PubMed) were conducted cross-referencing title and keywords for all selected antidiabetic therapies and their respective targets.
(§2) Alpha-glucosidase, biguanide, and thiazolidinedione (TZD) studies with long-term, pre-post design at maximal therapeutic doses were identified to simulate chronic administration. To maintain consistency with cardiovascular trials and accommodate known influences of hyperglycemia and hyperinsulinemia on the respective targets,^13-16 studies including patients with HbA1c in the range of 6-8% and body mass index (BMI)≧30 kg/m^2 were preferentially selected. In the event multiple studies were available to identify the effect of an agent on a therapeutic target, the mean percent change was used. Conversely, if there was evidence that an agent would elicit a response on a given target but no mathematical representation of the difference was provided, conservative estimates consistent with the scale of other agents and the degree of glucose regulation were instituted to best represent the expected effect. Individual agents were then characterized for the 24 h percent change from baseline for CE, HGU, GNG, IR, PGU, and PIE. Carbohydrate exposure was determined as the combined effect of caloric intake and intestinal carbohydrate absorption. Hepatic glucose uptake was defined as the reported value obtained immediately following oral glucose loading. Because GNG is known to be enhanced in the fasting state and persistent throughout the prandial phase,^17,18 effect was determined during the fasting state and considered equivalent throughout the prandial phase. For studies evaluating fasting glucose and insulin concentrations, an index of IR was determined by homeostasis model assessment of insulin resistance (HOM-AIR) using the following formula: Insulin (mU/liter)×Glucose (mmol)/22.5.^19 To account for known differences in secretory and uptake dynamics during the fasting and prandial phases, studies identifying the impact of therapies during the fasting state (or simulated hyperinsulinemic euglycemic clamp) and prandial phase (or oral glucose load insulin clamp) were specifically identified for changes in PGU (glucose infusion rate) and PIE (insulin concentrations) according to Equation (1): […]
(§3) For sulfonylurea and insulin-based therapies, insulin concentration time profiles were obtained and superimposed on the baseline 24 h insulin concentration time profile of T2D patients (FIG. 2) to calculate the increase in PIE (trapezoidal rule).^20 Calculated increases in incremental and cumulative insulin exposure were correlated to known insulin dose-response effects on HGU, GNG, and PGU (FIG. 3),^18,21 according to the equation y=mx+b. Twenty-four-hour increases in HGU, PGU, and PIE and decreases in GNG were compared to baseline values and percent change calculated.
(§4) With alpha-glucosidase, biguanide, TZD, secretagogue, and insulin therapies characterized for their respective impacts on CE, HGU, GNG, IR, PIE, and PGU, identification of their effect on the glucose supply (decrease in CE, increase in HGU, decrease in GNG, decrease in IR) and insulin demand (increase in PIE, increase in PGU) dynamic was assessed according to Equation (2), which provides the SD ratio according to the invention: […]

[2] = test system: peripheral glucose uptake (PGU); assay: Glucose supply and insulin demand model: effect on peripheral glucose uptake; format: in vivo, human
Procedure: as §1, §2, §3, §4

caloric intake = conditions: Lee and Morley, T2D, cited from earlier work
[3] = test system: intestinal carbohydrate absorption; conditions: Jackson; metformin, 75 g oral glucose load with labeled glucose, 3 h; cited from earlier work
[4] = test system: intestinal glucose transfer; conditions: metformin 50 mg/kg, mice; cited from earlier work
[5] = test system: brush border vesicles isolated from rabbit intestine; conditions: 5 mM metformin; cited from earlier work
[6] = test system: hepatic gluconeogenesis (GNG); conditions: metformin 2550 mg daily, cited from earlier work
insulin resistance (IR) [7] = conditions: cited from earlier work
[8] = test system: peripheral glucose uptake (PGU); conditions: cited from earlier work
[9] = Metformin 2000 mg, Glyburide 10 mg, Pioglitazone 45 mg, Insulin Glargine 0.5 U/kg daily, pH encapsulated glucose 3.0 grams/day

SMILES: CN(C)C(=N)N=C(N)N [Metformin]
- Score IR (insulin resistance (IR) [1]; [9]): 0.38
- IR reduction (insulin resistance (IR) [1]; adjustment factor = decrease in insulin resistance at the therapeutic dose of Table 1, T2D): 0.38
- Score PGU [2, 9]: 0.14
- PGU ([2]; adjustment factor = increase in peripheral glucose uptake at the therapeutic dose of Table 1, T2D): 0.14
- reduction of total caloric intake during the 30 min period (caloric intake; metformin 850 mg for 3 days): 30%
- reduction of total caloric intake during the 30 min period (caloric intake; metformin 1700 mg for 3 days): 50%
- absorption of glucose [3]: slightly delayed, but ultimately unaltered
- reduction of net glucose transfer in the serosal fluid [4]: 12%
- glucose uptake [5]: nominal decrease in glucose uptake
- rate of hepatic GNG, ^2H2O method ([6]; Hundal, 3 months, before 0.42±0.04): 0.28±0.03 mmol/m^−2/min^−1
- rate of hepatic GNG, nuclear magnetic resonance method ([6]; Hundal, 3 months, before 0.59±0.03): 0.18±0.03 mmol/m^−2/min^−1
- reduction of rate of hepatic GNG, ^2H2O method ([6]; Hundal, 3 months): 33%
- reduction of rate of hepatic GNG, nuclear magnetic resonance method ([6]; Hundal, 3 months): 36%
- reduction of rate of plasma lactate to plasma glucose conversion (GNG) ([6]; Stumvoll, 16 weeks, fasted T2D): 37%
- rate of plasma lactate to plasma glucose conversion (GNG) ([6]; Stumvoll, 16 weeks, before 7.3±0.7): 4.6±0.6 μmol/kg^−1/min^−1
- reduction of calculated IR (insulin resistance (IR) [7]; T2D patients, maximal therapeutic doses of metformin (Iozzo, Stumvoll, Tiikkainen, Sharma)): 38-44%
- reduction of calculated IR (HOMA-IR) (insulin resistance (IR) [7]; meta-analysis of randomized controlled trials, people at risk for T2D, metformin): 22.6%
- increase in glucose infusion rate ([8]; Inzucchi, metformin 2000 mg daily, 12 weeks, euglycemic hyperinsulinemic clamp at 100 mg/dl): 13%
- glucose infusion rate ([8]; Inzucchi, metformin 2000 mg daily, 12 weeks, euglycemic hyperinsulinemic clamp, before 240): 272 mg/m^−2/min^−1
- rate of plasma glucose turnover ([8]; Stumvoll, metformin, before 2.8±0.2): 2.0±0.2 mg/kg^−1/min^−1
- systemic glucose disposal ([8]; Stumvoll, metformin): did not change
- glucose rate of disappearance ([8]; Tiikkainen, metformin 2000 mg daily, 16 weeks, clamp at 144 mg/dl, before 0.09±0.01, unchanged): 0.10±0.01 mg/kg^−1/min^−1
